From patent US12030862B2, “Allosteric chromenone inhibitors of phosphoinositide 3-kinase (PI3K) for the treatment of disease” (Petra Pharma Corporation, priority 2021, dated 2024)

What was measured:
[1] = molecular target: T1, PI3K-α (PIK3CA) H1047R mutant (p110α/p85α complex) (Homo sapiens, UniProt P42336, H1047R); experiment: PI3K-Alpha kinase (PIK3CA) biochemical ADP-Glo assay, H1047R mutant; conditions: 20 uM ATP, 1 h pre-incubation
T1 construct: Recombinant, catalytically active human full length PIK3KA Wild-type and H1047R mutant were purchased as 1:1 complex; 6xHis (N); purchased EMD Millipore Sigma 14-792M
T1 sequence (P42336 whole entry H1047R): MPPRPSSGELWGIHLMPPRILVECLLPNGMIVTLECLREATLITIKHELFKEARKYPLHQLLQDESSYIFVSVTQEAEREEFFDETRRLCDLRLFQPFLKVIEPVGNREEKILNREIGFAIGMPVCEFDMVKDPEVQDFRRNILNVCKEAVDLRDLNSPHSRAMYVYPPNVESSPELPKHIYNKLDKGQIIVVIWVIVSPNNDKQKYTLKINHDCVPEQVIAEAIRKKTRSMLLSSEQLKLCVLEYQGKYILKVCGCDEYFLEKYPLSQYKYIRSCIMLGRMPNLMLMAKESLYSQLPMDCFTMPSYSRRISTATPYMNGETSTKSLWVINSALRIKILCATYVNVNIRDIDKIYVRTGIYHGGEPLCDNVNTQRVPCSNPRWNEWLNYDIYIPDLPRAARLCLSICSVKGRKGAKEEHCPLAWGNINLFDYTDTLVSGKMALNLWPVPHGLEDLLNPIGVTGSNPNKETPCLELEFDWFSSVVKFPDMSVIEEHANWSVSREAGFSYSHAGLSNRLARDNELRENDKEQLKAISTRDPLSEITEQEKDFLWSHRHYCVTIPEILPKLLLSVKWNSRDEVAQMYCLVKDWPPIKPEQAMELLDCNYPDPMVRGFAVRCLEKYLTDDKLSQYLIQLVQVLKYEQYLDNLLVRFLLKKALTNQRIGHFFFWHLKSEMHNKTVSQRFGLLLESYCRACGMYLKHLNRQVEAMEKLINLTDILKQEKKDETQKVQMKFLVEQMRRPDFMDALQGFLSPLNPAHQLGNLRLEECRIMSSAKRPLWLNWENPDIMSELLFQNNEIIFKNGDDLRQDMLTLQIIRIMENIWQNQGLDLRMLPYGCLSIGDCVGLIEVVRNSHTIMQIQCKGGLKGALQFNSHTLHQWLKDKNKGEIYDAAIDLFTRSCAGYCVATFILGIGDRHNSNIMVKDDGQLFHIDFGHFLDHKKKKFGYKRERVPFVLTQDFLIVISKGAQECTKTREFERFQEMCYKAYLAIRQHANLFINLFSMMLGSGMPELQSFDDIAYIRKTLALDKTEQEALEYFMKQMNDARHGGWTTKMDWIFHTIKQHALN
T1 sequence (P27986 whole entry partner): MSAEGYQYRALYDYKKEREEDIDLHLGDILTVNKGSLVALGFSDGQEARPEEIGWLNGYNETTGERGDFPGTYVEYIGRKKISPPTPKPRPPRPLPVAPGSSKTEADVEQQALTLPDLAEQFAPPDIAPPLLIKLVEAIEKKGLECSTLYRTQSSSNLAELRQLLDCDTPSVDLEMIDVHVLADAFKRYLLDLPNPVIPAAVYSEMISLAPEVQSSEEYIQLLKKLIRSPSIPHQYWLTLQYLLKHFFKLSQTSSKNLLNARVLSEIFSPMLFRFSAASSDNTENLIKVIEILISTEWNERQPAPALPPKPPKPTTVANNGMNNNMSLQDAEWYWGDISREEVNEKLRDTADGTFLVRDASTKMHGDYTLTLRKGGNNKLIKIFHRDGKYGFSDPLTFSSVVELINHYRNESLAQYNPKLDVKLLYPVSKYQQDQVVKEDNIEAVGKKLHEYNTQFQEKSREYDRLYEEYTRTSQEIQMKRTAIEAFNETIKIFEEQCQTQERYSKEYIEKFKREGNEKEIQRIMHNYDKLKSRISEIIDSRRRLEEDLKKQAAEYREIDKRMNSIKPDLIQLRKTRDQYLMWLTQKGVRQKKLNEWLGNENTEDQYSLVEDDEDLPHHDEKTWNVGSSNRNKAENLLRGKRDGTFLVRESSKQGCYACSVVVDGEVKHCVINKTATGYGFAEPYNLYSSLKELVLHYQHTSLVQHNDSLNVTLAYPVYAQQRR
Excerpt: (§1) PI3K-Alpha kinase (PIK3CA) activity, wild-type and H1047R mutant and determining IC50 values for inhibitors
(§2) Recombinant, catalytically active human full length PIK3KA Wild-type and H1047R mutant were purchased as 1:1 complex of N-terminal 6× his tagged p110α (catalytic) and untagged p85α (regulatory subunit) from EMD Millipore Sigma (cat. no. 14-602M and 14-792M, respectively). PIP2diC8 (Avanti Polar Lipids Inc., cat. no. 850185) or Soy PI (Avanti Polar Lipids Inc., cat. No. 840044P) was used as lipid substrate. PIP2diC8 or PI lyophilized powder was dissolved in milliQ water to a concentration of 1 mM just before use. 10 mM stock compounds in DMSO were serially diluted 1:3 to generate a 10-point curve and plated using an acoustic liquid handler system (Echo 550 series instrument, Labcyte). A 10× intermediate compound plate (200 uM starting compound concentration and 10% DMSO) was prepared before starting the reaction. A typical reaction mixture (50 uL) comprised 40 mM HEPES buffer, pH 7.4, 25 mM MgCl2, 0.01% v/v triton-X-100, 1% v/v DMSO, 20 mM NaCl, 1-5 nM WT or H1047R PI3K protein, 20 uM ATP, and 50 uM PIP2diC8 or Soy PI. 1% DMSO buffer alone without test compound was employed as MAX control (full activity in the absence of any inhibitor), and no enzyme control was used to determine the level of background Adenosine 5′-diphosphate (ADP) (MIN control). First, Wild-type (WT) and H1047R mutant protein in kinase buffer with all components except ATP were incubated with or without compound at 27° C. for 1 h. After the pre-incubation, the reaction was initiated by the addition of 20 uL of 50 uM ATP (20 uM final concentration). The reaction was allowed to proceed until about 10% conversion of ATP (2 uM ADP) at 27° C. After that time, 5 uL of reaction was mixed with 5 uL of ADP-Kinase Glo Reagent (ADP-Glo Kinase assay kit, Promega cat. no. V9102) supplemented with MgCl2 10 mM to stop the reaction and deplete the remaining ATP for 40 min at room temperature. Then, 10 uL of Kinase Detection Reagent (ADP-Glo Kinase assay kit, Promega cat. no. V9102) was added to simultaneously convert ADP to ATP and allow the newly synthesized ATP to be measured using a luciferase/luciferin reaction. After 30 min at room temperature the light generated was measured using a luminometer (EnVision plate reader, Perkin Elmer). Process data through Genedata-Screener tool. Relative IC50 values are determined using luminescence units by calculating percent inhibition with respect to on-plate “MIN” and “MAX” controls. Data was analyzed using a 4-parameter nonlinear logistic equation (four-parameter logistic concentration-response curve): Y=bot+[(top−bot)/1+(x/IC50)slope] where Y=% inhibition, X=concentration yielding y% inhibition, Bottom=minimum value of y attained by curve, Top=maximum value of y attained by curve and Slope=steepness of curve at IC50. % Inh=[(median Max−x/median Max−median Min)]·100 IC50: concentration of compound that reduces a given response (ligand binding, enzyme response) by 50%. IC50 relative: concentration giving half the compound's maximum response.
(§3) For IC50 values shown in Table A, “A” means IC50<0.5 μM; “B” means IC50 ranging between 0.5 μM and 1.0 μM; “C” means IC50 ranging between 1 μM and 5 μM; “D” means IC50 ranging between 5 μM and 10 μM; “E” means IC50>10 μM.

[2] = molecular target: T2, PI3K-α (PIK3CA) wild-type (WT) (p110α/p85α complex) (Homo sapiens, UniProt P42336); experiment: PI3K-Alpha kinase (PIK3CA) biochemical ADP-Glo assay, wild-type; conditions: 20 uM ATP, 1 h pre-incubation
T2 construct: Recombinant, catalytically active human full length PIK3KA Wild-type and H1047R mutant were purchased as 1:1 complex; 6xHis (N); purchased EMD Millipore Sigma 14-602M
Excerpt: as §1, §2, §3

[3] = PIP2diC8 lipid substrate (footnote 1)

| Compound | IC50 [1, 3] [µM] | IC50 [2, 3] [µM] | IC50 ([1]; Soy PI lipid substrate) [µM] | IC50 ([2]; Soy PI lipid substrate) [µM] |
| --- | --- | --- | --- | --- |
| Cc1cc(C(C)Nc2ccccc2C(=O)O)c2oc(C3CCCCC3)cc(=O)c2c1 (single isomer, unassigned; isomer 1) [Example 8, 2-[1-(2-Cyclohexyl-6-methyl-4-oxo-chromen-8-yl)ethylamino]benzoic acid, Isomer 1] | 1 to 5 | > 10 |  |  |
| Cc1cc(C(C)Nc2ccccc2C(=O)O)c2oc(C3CCC(C)(C)CC3)cc(=O)c2c1 (single isomer, unassigned; isomer 1) [Example 10, 2-[1-[2-(4,4-Dimethylcyclohexyl)-6-methyl-4-oxo-chromen-8-yl]ethylamino]benzoic acid, Isomer 1] | < 0.5 | 1 to 5 |  |  |
| CC(Nc1ccccc1C(=O)O)c1cccc2c(=O)cc(C3CCCCC3)oc12 (single isomer, unassigned; isomer 1) [Example 12, 2-[1-(2-Cyclohexyl-4-oxo-chromen-8-yl)ethylamino]benzoic acid, Isomer 1] | > 10 | > 10 |  |  |
| Cc1cc(C(C)Nc2ccccc2C(=O)O)c2oc(C3CCC(F)(F)CC3)cc(=O)c2c1 (single isomer, unassigned; isomer 1) [Example 14, 2-[1-[2-(4,4-Difluorocyclohexyl)-6-methyl-4-oxo-chromen-8-yl]ethylamino]benzoic acid, Isomer 1] |  |  | > 10 | > 10 |
| Cc1cc(C(C)Nc2ccccc2C(=O)O)c2oc(C3CCC(F)(F)CC3)c(C)c(=O)c2c1 (single isomer, unassigned; isomer 1) [Example 16, 2-[1-[2-(4,4-Difluorocyclohexyl)-3,6-dimethyl-4-oxo-chromen-8-yl]ethylamino]benzoic acid, Isomer 1] |  |  | < 0.5 | 0.5 to 1 |
| Cc1cc(C(C)Nc2ccccc2C(=O)O)c2oc(C3Cc4ccccc4C3)cc(=O)c2c1 (single isomer, unassigned; isomer 1) [Example 18, 2-[1-(2-Indan-2-yl-6-methyl-4-oxo-chromen-8-yl)ethylamino]benzoic acid, Isomer 1] |  |  | 1 to 5 | > 10 |
| Cc1cc(C(C)Nc2ccccc2C(=O)O)c2oc(C3Cc4ccccc4C3)c(C)c(=O)c2c1 (single isomer, unassigned; isomer 1) [Example 21, 2-[1-(2-Indan-2-yl-3,6-dimethyl-4-oxo-chromen-8-yl)ethylamino]benzoic acid, Isomer 1] |  |  | < 0.5 | 1 to 5 |
| Cc1cc(C(C)Nc2ccccc2C(=O)O)c2oc(C3CCCCC3)cc(=O)c2c1 (single isomer, unassigned; isomer 2) [Example 9, 2-[1-(2-Cyclohexyl-6-methyl-4-oxo-chromen-8-yl)ethylamino]benzoic acid, Isomer 2] | < 0.5 | < 0.5 |  |  |
| Cc1cc(C(C)Nc2ccccc2C(=O)O)c2oc(C3CCC(C)(C)CC3)cc(=O)c2c1 (single isomer, unassigned; isomer 2) [Example 11, 2-[1-[2-(4,4-Dimethylcyclohexyl)-6-methyl-4-oxo-chromen-8-yl]ethylamino]benzoic acid, Isomer 2] | > 10 | > 10 |  |  |
| CC(Nc1ccccc1C(=O)O)c1cccc2c(=O)cc(C3CCCCC3)oc12 (single isomer, unassigned; isomer 2) [Example 13, 2-[1-(2-Cyclohexyl-4-oxo-chromen-8-yl)ethylamino]benzoic acid, Isomer 2] |  |  | < 0.5 | > 10 |
| Cc1cc(C(C)Nc2ccccc2C(=O)O)c2oc(C3CCC(F)(F)CC3)cc(=O)c2c1 (single isomer, unassigned; isomer 2) [Example 15, 2-[1-[2-(4,4-Difluorocyclohexyl)-6-methyl-4-oxo-chromen-8-yl]ethylamino]benzoic acid, Isomer 2] |  |  | < 0.5 | > 10 |
| Cc1cc(C(C)Nc2ccccc2C(=O)O)c2oc(C3CCC(F)(F)CC3)c(C)c(=O)c2c1 (single isomer, unassigned; isomer 2) [Example 17, 2-[1-[2-(4,4-Difluorocyclohexyl)-3,6-dimethyl-4-oxo-chromen-8-yl]ethylamino]benzoic acid, Isomer 2] |  |  | > 10 | > 10 |
| Cc1cc(C(C)Nc2ccccc2C(=O)O)c2oc(C3Cc4ccccc4C3)cc(=O)c2c1 (single isomer, unassigned; isomer 2) [Example 19, 2-[1-(2-Indan-2-yl-6-methyl-4-oxo-chromen-8-yl)ethylamino]benzoic acid, Isomer 2] |  |  | < 0.5 | 1 to 5 |
| Cc1cc(C(C)Nc2ccccc2C(=O)O)c2oc(C3Cc4ccccc4C3)c(C)c(=O)c2c1 (single isomer, unassigned; isomer 2) [Example 22, 2-[1-(2-Indan-2-yl-3,6-dimethyl-4-oxo-chromen-8-yl)ethylamino]benzoic acid, Isomer 2] |  |  | > 10 | > 10 |
| Cc1cc(C(C)Nc2ccccc2C(=O)O)c2oc(C3(c4ccccc4)CC3)cc(=O)c2c1 (stereo not drawn) [Example 7, 2-[1-[6-Methyl-4-oxo-2-(1-phenylcyclopropyl)chromen-8-yl]ethylamino]benzoic acid; 2,2,2-trifluoroacetic acid] |  |  | < 0.5 | > 10 |
